From patent US10194854B2, “Method for non-invasive monitoring of fluorescent tracer agent with background separation corrections” (MediBeacon Inc., priority 2017, dated 2019)

Assay: Absorption and emission spectra of MB-102 (FIG. 3)
Type: physicochemical
Excerpt: By way of illustrative example, FIG. 3 is a graph summarizing the absorption spectra for HbO2 and Hb, as well as the absorption and emission spectra of frequency spectra of MB-102, an exogenous fluorescent agent in one aspect. Emission spectra for a blue LED light source and a green LED light source are also shown superimposed over the other spectra of FIG. 3. In this aspect, the system 200 may include a blue LED as the first light source 218, and the excitatory wavelength for the system 200 may be the isosbestic wavelength of about 450 nm. […] However, at wavelengths above about 500 nm, the HbO2/Hb spectra are less steeply sloped, and a broader band light source including, but not limited to, an LED with a bandpass filter may suffice for use as a first light source 218.
In another aspect, the excitatory wave length may be selected to enhance the contrast in light absorbance between the exogenous fluorescent agent and the chromophores within the tissues of the patient 202. […] Without being limited to any particular theory, a higher proportion of light illuminating the tissue of the patient 202 at a wavelength of about 450 nm will be absorbed by the MB-102 relative to the HbO2 and Hb, thus enhancing the efficiency of absorption by the MB-102 and reducing the intensity of light at the excitatory wavelength needed to elicit a detectable fluorescence signal. […]

- light absorption relative to the light absorption of the HbO2 and the Hb (at the isosbestic wavelength of 452 nm): more than three-fold higher
- emission peak wavelength (emission spectrum): about 550 nm
Compound: Nc1nc(C(=O)N[C@H](CO)C(=O)O)c(N)nc1C(=O)N[C@H](CO)C(=O)O [MB-102]
